Reference: patent US20250064773A1, “TARGETING ERO1 ALPHA WITH AURONE DERIVATIVES” (West Virginia University Board of Governors on behalf of …, priority 2021, published 2025)

Columns and labels:
[1] = target: T1, recombinant ERO1α (Homo sapiens, UniProt Q96HE7, C104A/C131A/C166A); assay: Surface plasma resonance (Biacore) binding; details: SPR
T1 construct: made in house
T1 sequence (Q96HE7 22-468 C104A/C131A/C166A): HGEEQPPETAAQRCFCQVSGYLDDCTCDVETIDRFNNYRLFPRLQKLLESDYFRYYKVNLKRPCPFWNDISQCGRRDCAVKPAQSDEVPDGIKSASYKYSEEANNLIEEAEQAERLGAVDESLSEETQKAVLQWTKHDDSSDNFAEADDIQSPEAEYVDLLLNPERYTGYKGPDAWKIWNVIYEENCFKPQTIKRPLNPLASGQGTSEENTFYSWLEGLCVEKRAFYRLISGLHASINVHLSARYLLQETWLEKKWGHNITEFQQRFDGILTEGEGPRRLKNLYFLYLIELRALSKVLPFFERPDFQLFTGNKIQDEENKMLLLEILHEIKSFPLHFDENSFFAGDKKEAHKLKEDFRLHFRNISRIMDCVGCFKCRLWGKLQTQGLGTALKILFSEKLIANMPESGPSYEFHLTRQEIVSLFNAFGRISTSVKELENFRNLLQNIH
Method: Surface plasma resonance (SPR) was utilized as an orthogonal assay to confirm direct binding between T151742 and ERO1α. For the SPR assay, recombinant ERO1α was crosslinked to a C5 chip and varying concentrations of ligand T151742 were evaluated for detection of changes in refractive index, due to change in mass on the chip when ligand is bound to the protein. […] The relatively high Kd value is in part due to the fast off-rate.
Cell Lines: PC-9 cell line used was obtained from Sigma Aldrich and grown in RPMI 1640 medium with 10% fetal bovine serum and 1% penicillin/streptomycin. HCC4006, U266, MM1.s, and Beas-2B cell lines were obtained from ATCC and cultured in either RPMI 1640 or DMEM with 10% fetal bovine serum and 1% penicillin/streptomycin. […] Plate was then read on the BioTek Cytation 5 at 530/590 nm. […] Plate was then read at 570 nm. Treated wells were all compared to DMSO control wells to calculate percent growth inhibition and the IC50 was calculated using GraphPad (log(inhibitor) vs growth inhibition). […] Images were then quantified using ImageJ. […] Cells were aliquoted at 1 million cells per PCR tube in PBS and heated in Bio-Rad T100 thermal cycler at indicated temperatures (RT, 46° C., 48° C., 50° C., 52° C., 54° C., 56°, 58° C., and 60° C.) for 3 minutes and aggregation temperature was determined by western blot analysis. […]

[2] = target: T2, MAO-A (Homo sapiens, UniProt P21397); details: cited from earlier work
T2 sequence (P21397 1-527): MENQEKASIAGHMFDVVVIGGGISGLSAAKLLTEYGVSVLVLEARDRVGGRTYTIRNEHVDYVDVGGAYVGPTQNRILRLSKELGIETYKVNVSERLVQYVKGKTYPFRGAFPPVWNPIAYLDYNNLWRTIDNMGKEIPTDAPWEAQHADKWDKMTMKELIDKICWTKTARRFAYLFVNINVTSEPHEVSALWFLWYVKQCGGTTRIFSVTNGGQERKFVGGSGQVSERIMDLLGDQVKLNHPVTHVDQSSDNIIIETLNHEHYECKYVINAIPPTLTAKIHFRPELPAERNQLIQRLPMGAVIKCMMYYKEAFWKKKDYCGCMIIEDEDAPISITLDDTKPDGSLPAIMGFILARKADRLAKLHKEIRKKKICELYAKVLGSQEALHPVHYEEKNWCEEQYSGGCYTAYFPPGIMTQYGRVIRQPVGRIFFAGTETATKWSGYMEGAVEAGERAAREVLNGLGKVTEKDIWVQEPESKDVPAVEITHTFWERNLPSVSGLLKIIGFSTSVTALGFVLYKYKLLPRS

In the case of `CN(C)c1ccc(/C=C2\Oc3cc(O)ccc3C2=O)cc1` [Compound T151742], the off-rate [1] is given as “fast off-rate” and the “inhibition of / activity against MAO-A” value [2] is given as “showed activity”.
